Results taken from patent publication US6284769A, “Nonpeptide kappa opioid receptor antagonists” (The Board of Trustees of the University of Illinois, priority 1999, dated 2001).
Read-outs that look alike come from different tables or passages of the source.

Columns and labels:
[1] = biological target: T1, μ opioid receptor (Homo sapiens, UniProt P35372); assay: Receptor binding, [3H]DAMGO, membranes of transfected CHO cells
T1 construct: expressed in transfected cells; host or cells: Chinese hamster ovary (CHO) cells, membranes
T1 sequence (P35372 whole entry): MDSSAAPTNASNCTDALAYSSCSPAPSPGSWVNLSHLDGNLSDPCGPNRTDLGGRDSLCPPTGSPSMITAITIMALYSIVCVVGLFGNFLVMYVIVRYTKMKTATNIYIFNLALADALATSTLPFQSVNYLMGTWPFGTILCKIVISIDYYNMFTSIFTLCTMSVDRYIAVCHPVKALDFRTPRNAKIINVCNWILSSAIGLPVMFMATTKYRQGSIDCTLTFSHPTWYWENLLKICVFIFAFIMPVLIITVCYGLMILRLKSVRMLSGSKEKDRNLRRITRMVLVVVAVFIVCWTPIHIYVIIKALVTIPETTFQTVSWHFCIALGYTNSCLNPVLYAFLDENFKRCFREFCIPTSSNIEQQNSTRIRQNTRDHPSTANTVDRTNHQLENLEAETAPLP
Experimental: (§1) Opioid receptor activity studies were carried out by the method of the Opiate Treatment Discovery Program of the National Institutes of Health. Receptor binding studies were conducted on Chinese hamster ovary (CHO) cells which had been transfected with human DNA encoding for the μ, δ, and κ opiate receptors, respectively.
(§2) The cell line expressing the μ opioid receptor is maintained in Ham's F-12 medium supplemented with 10% fetal bovine serum and 400 μg/ml GENETICIN (G418 sulfate). The cell line expressing the δ opioid receptor is maintained in Ham's F-12 medium supplemented with 10% fetal bovine serum and 500 μg/ml hygromycin B. The cell line expressing the κ opioid receptor is maintained in Dulbecco's minimal essential medium (DMEM) supplemented with 10% fetal bovine serum, 400 μg/ml GENETICIN (G418 sulfate), and 0.1% penicillin/streptomycin. All cell lines are grown to full confluency, then harvested for membrane preparation. The membrane used for functional assays is prepared in buffer A (20 mM HEPES, 10 mM MgCl2, and 100 mM NaCl at pH 7.4) and the membrane for binding assays is prepared in 50 mM Tris buffer, pH 7.7. Cells are harvested by scraping the plates with a rubber policeman and then centrifuged at 500 times gravity for 10 minutes. The cell pellet is suspended in buffer A or Tris buffer, homogenized in a Polytron Homogenizer, and centrifuged at 20,000 times gravity for 20 minutes. The cell pellet is washed in buffer A or Tris, centrifuged at 20,000 times gravity for another 20 minutes, and, finally, suspended in a small amount of buffer to determine protein content. Membrane is aliquoted in small vials at a concentration of 6 mg/ml per vial, stored at -70° C., and used as needed.
Binding assays were conducted using [^3 H]DAMGO, [^3 H]Cl-DPDPE and [^3 H]U69,593 as labelling ligands specific for μ, δ and κ opioid receptors, respectively. DAMGO is Tyr-D-Ala-Gly-NMePhe-[…]. The structural formulae for U69,593 and Cl-DPDPE are [drawing 10] […]
(§3) Samples were filtered over glass fiber filters and counted as described for the binding assays.

[2] = biological target: T2, κ opioid receptor (Homo sapiens, UniProt P41145); assay: Receptor binding, [3H]U69,593, membranes of transfected CHO cells; conditions: CHO cell membranes, radioligand [3H]U69,593, 1 hour at 25° C., SEM in brackets
T2 construct: expressed in transfected cells; host or cells: Chinese hamster ovary (CHO) cells, membranes
T2 sequence (P41145 whole entry): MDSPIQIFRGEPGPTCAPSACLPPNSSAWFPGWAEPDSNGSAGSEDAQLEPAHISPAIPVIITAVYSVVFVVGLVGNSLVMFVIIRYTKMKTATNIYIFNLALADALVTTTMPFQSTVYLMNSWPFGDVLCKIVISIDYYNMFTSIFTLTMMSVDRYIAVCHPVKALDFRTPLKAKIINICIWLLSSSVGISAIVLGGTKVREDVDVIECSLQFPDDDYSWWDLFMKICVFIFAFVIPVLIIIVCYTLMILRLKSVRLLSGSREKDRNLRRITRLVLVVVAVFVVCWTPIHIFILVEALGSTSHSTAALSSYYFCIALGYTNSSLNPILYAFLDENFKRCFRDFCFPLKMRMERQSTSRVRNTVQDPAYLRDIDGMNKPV
Experimental: as §1
The cell line expressing the μ opioid receptor is maintained in Ham's F-12 medium supplemented with 10% fetal bovine serum and 400 μg/ml GENETICIN (G418 sulfate). […]
Cell membranes were incubated with the appropriate radioligand and unlabeled compounds of Example 1 in a total volume of 200 μl in 96-well plates, usually for 1 hour at 25° C. […] Filters were dried overnight before radioactivity levels were determined. Nonspecific binding was determined by using 1.0 μM of the unlabeled counterpart of each radioligand.
(§4) Analysis of the data for IC50 values and Hill coefficients was performed using the program PRISM. Opioid receptor binding constants, Ki, were calculated using the Cheng-Prusoff transformation, Ki=IC50 /(1+L/Kd), where L is radioligand concentration and Kd is the binding affinity of the radioligand, as determined previously by saturation analysis. […] Samples were filtered over glass fiber filters and counted as described for the binding assays. […]

[3] = biological target: T3, δ opioid receptor (Homo sapiens, UniProt P41143); assay: Receptor binding, [3H]Cl-DPDPE, membranes of transfected CHO cells; conditions: CHO cell membranes, radioligand [3H]Cl-DPDPE, 1 hour at 25° C., SEM in brackets
T3 construct: expressed in transfected cells; host or cells: Chinese hamster ovary (CHO) cells, membranes
T3 sequence (P41143 whole entry): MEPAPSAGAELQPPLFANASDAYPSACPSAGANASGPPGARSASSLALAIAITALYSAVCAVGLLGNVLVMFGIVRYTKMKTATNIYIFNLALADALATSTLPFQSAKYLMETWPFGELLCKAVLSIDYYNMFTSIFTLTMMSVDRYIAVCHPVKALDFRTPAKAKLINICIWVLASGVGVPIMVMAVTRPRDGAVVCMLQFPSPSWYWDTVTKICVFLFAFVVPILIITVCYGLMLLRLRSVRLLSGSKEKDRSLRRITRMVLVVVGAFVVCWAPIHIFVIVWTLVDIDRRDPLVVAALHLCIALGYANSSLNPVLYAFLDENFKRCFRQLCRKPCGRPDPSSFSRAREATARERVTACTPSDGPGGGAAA
Experimental: as §1
as §2, with “The cell pellet is suspended in buffer A or Tris buffer, homogenized in a Polytron Homogenizer, and centrifuged at 20,000 times gravity for 20 minutes. The cell pellet is washed in buffer A or Tris, centrifuged at 20,000 times gravity for another 20 minutes, and, finally, suspended in a small amount of buffer to determine protein content. Membrane is aliquoted in small vials at a concentration of 6 mg/ml per vial, stored at -70° C., and used as needed.” left out
as §3

[4] = biological target: T2, κ opioid receptor; assay: [35S]GTPγS agonist/antagonist assay with Schild analysis, κ-CHO membrane; assay type: biochemical
Experimental: as §1, §2
as §4, with “analysis. See Y. C. Cheng et al., Biochem. Pharmacol., 22, p. 3099-3102 (1973).” for “analysis.”
(§5) Agonist activity at μ, δ and κ receptors is reported as % stimulation relative to the respective agonists DAMGO, Cl-DPDPE, and U69,593. […] A full Schild analysis was conducted, utilizing a full agonist dose response curve in the presence of at least three concentrations of the antagonist. pA2 values and Schild slopes were determined using a statistical program designed for these experiments.

[5] = system: δ receptor of the T-cell; assay: Stimulatory activity at the δ receptor of the T-cell of the immune system; assay type: cell-based; conditions: result in words
[6] = In vivo analgesic testing on rats; conditions: result in words
[7] = biological target: T3, δ opioid receptor; assay: [35S]GTPγS agonist/antagonist assay, δ-CHO membrane; assay type: biochemical
Experimental: as §1, §2, §3

[8] = biological target: T1, μ opioid receptor; assay: [35S]GTPγS agonist/antagonist assay, μ-CHO membrane; assay type: biochemical
Experimental: as §1
as §2, with “The cell pellet is suspended in buffer A or Tris buffer, homogenized in a Polytron Homogenizer, and centrifuged at 20,000 times gravity for 20 minutes. The cell pellet is washed in buffer A or Tris, centrifuged at 20,000 times gravity for another 20 minutes, and, finally, suspended in a small amount of buffer to determine protein content. Membrane is aliquoted in small vials at a concentration of 6 mg/ml per vial, stored at -70° C., and used as needed.” left out
as §4, §5

[9] = [35S]GTPγS, 60 min at 25° C., SEM in brackets

In the case of CN1CC[C@]23c4c5ccc(O)c4O[C@H]2c2n[nH]cc2C[C@@]3(O)[C@H]1C5 [Example 1, 17-Methyl-6,7-dehydro-3,14-hydroxy-4,5α-epoxy-6,7:5',4'(6,7: 3',4')pyrazolomorphin (tautomers)], the Ki ([1]; CHO cell membranes, human μ receptor, radioligand [3H]DAMGO, 1 hour at 25° C., SEM in brackets) is reported as 3.75 nM, the “Selectivity: affinity for μ over δ” value ([1]; ratio of binding affinities, μ versus δ) is reported as “about 7 times” and the “Selectivity: affinity for μ over κ” value ([1]; ratio of binding affinities, μ versus κ) is reported as “about 7 times”. It also gave a Ki [2] of 12.3 nM, a Ki [3] of 19.1 nM and a Kb ([4]; [35S]GTPγS, antagonism, agonist U69,593, SEM in brackets, read-out: Ke (SEM) κ-CHO membrane) of 59.3 nM. The Schild slope ([4]; full Schild analysis, κ-CHO membrane) was -0.92±0.32, the Kb ([4]; full Schild analysis, κ-CHO membrane, read-out: pA2 value (converted)) was 51.3 nM and the “Agonist/antagonist property at the κ receptor” value ([4]; result in words) was “antagonist”. For the same compound, the “Stimulatory activity at the δ receptor of the T-cell” value [5] was “weak stimulatory activity”, the Analgesic activity [6] was “potent analgesic activity” and the “Duration of analgesic activity” value [6] was “long duration of activity”. For the same compound, the Emax ([7]; 1 h, [35S]GTPγS, relative to full agonist Cl-DPDPE, read-out: % Stimulation δ-CHO membrane) was 75.2%, the EC50 [7, 9] was 25 nM and the “Agonist/antagonist property at the δ receptor” value ([7]; result in words) was “agonist”. For the same compound, the Emax ([8]; 1 h, [35S]GTPγS, relative to full agonist DAMGO, read-out: % Stimulation μ-CHO membrane) was 80.3%, the EC50 [8, 9] was 19.3 nM and the “Agonist/antagonist property at the μ receptor” value ([8]; result in words) was “agonist”.
